Several values for one entry are separate records, joined by “and”; a condition that tells them apart may be missing. Identical values can stand only once.
Assays:
[1] = system: passive cutaneous anaphylaxis lesions in the rat; assay: Rat Passive Cutaneous Anaphylaxis Assay (PCA); assay type: in vivo, rat (male Wistar strain); settings: for Lesion Area (Low IgE): IgE 25 ng/site; for Lesion Area (Low IgE) / Lesion Area (High IgE): mean ± SD; for Lesion Area (High IgE): IgE 50 ng/site
Protocol: Solutions made by dissolving 0.50 g in 100 ml of normal saline. Mouse monoclonal IgE (ICN Biochemicals) clone SPE-7 directed against DNP is subdivided into 50 ul aliquots and stored at -70° C. DNP-ovalbumin is made by reacting DNP sulfonic acid with ovalbumin dissolved in saline overnight at room temperature. The resulting solution is dialyzed extensively at 4 C to remove unreacted DNPsulfonic acid and stored as 1 mL aliquots of 100 mg/ml at -70° C. Male Wistar strain rats, certified viral free, weighing 250-300 g are obtained from Hilltop Laboratory Animals and housed, in accordance with AALAC standards, on site for at least one week before use. Forty-eight hours before challenge the rats are shaved on the dorsal surfaces and returned to the cages. Twenty-four hours before challenge the rats are given intradermal injections of 0.1 mL, one on each flank, of saline containing IgE at concentrations ranging from 1000 to 250 ng/mL. These injections give a local dose of 100 to 25 ng IgE. The IgE binds to specific receptors on mast cells in the skin. […] To the Evan's blue dye is added sufficient DNP-ovalbumin to make a 1 mg/ml solution. This allergen containing dye is injected intravenously via a tail vein into the rats at 10 ml/Kg. The Evans' blue binds to plasma albumin and remains in the vascular space under conditions of normal capillary permeability. The allergen, which can diffuse into the extravascular space, binds to the IgE on the surface of the cutaneous mast cells and initiates the immediate hypersensitivity response which leads to the release of histamine by intracellular granules of the mast cell. The histamine causes an increase in capillary permeability which allows plasma proteins including the dye tagged albumin to diffuse into the extracellular space resulting in a blue spot in the skin. The size of the lesion is proportional to the amounts of mediators released. This process reaches an optimum in 30 minutes. Thirty minutes after challenge the rats are euthanized by CO2. The skin is reflected from the back and the lesion areas estimated as the product of the largest diameter of the bluespot and the diameter perpendicular to it. A compound which is a mediator release inhibitor will reduce the spot area. The effectiveness of the compounds is determined by Analysis of Variance of the lesion areas grouped by IgE dose and compound. Compounds are considered active at the P<0.05 level. Table II contains the results of the experiments expressed as the areas of the lesions in mm^2. The control lesions for these experiments are also listed. Because more than one compound at a time is tested, some of the control values are repeated in the table. Table III contains the data expressed as a % of the appropriate control.

[2] = system: immunologically stimulated human basophils; assay: Inhibition of histamine release from immunologically stimulated human basophils; assay type: cell-based; settings: Homo sapiens
From the text: The bronchospasm of allergic asthma is a consequence of the release of mediators, such as histamine and slow-reacting substances from mast cells. The role of mediator release in the induction of an asthmatic attack has been fully reviewed and documented; see […]. and Austen, K. F., Bronchial Asthma Mechanisms and Therapeutics, E. B. Weiss, Editor, Little, Brown and Company, Boston, 163, (1976); Lichtenstein, L. M., Asthma-Physiology, Immunopharmacology and Treatment, Second International Symposium, L. M. Lichtenstein and K. F. Austen, Editors, Academic Press, New York, 51, (1979); and Bell, S. C., et al., Annular Reports in Medicinal Chemistry, 14, 51, H. J. Hess, Editor, Academic Press, New York, (1979). The novel compounds of this invention have been tested by the procedure of Lichtenstein, L. M. and Osler, A. G., J. Exp. […] Dissolve 140.3 g of sodium chloride, 7.45 g of Trizma-Tris Pre-Set, Reagent Grade, pH 7.6 at 25° C. (Sigma Chemical Co.) in sufficient water to give a final volume of 2 liters. (Sigma chemical Co.) (30 mg/ml) Made to 0.075M and 0.5M respectively, with calcium chloride dihydrate and magnesium chloride hexahydrate. A 10 ml portion of 10× Tris Buffer and 1.0 ml of human albumin are diluted to 100 ml with water. A 10 ml portion of 10× Tris Buffer, 1.0 ml of human albumin, 0.8 ml of calcium stock and 0.2 ml of magnesium stock are diluted to 100 ml with water. Behring Diagnostics (Generally used at 10 μg protein/ml final concentration). Strength 1:100 (w:v) allergenic extract, Hollister-Stier Labs. Generally this is diluted 1:1000 to 1:10,000 (considering the vial as stock). Interdermal solutions or intramuscular preparations for hyposensitization, Hollister-Stier Labs. The final concentrations used are on the order of 1 PNU/ml. Using four 20 ml heparinized tubes, […] of blood are withdrawn from subjects with known histamine release to anti-IgE, ragweed antigen or other specific allergen. These 80 ml of blood are mixed with 20 ml of saline containing 0.6 g of dextrose and 1.2 g of dextran. The blood is allowed to sediment at room temperature in two 50 ml polycarbonate centrifuge tubes until a sharp interface develops between the red cells and plasma (60-90 minutes). The plasma, containing the leukocytes, (top) layer from each tube, is withdrawn by pipet and transferred to 50 ml polycarbonate tubes. The plasma is centrifuged for 8 minutes at 110× G at 4° C. The supernatant is carefully poured off as completely as possible and the cell button is resuspended in 2-3 ml of Tris-A buffer using a siliconized Pasteur pipet. The resuspension is accomplished by drawing the liquid gently in an out of the pipet, with the tip below the liquid until an even suspension of cells is obtained. […]

[3] = 2.0 mg/kg PO 2 hrs, hydrochloride

Cl.c1cc(Nc2nccc(-c3cccs3)n2)cc(OCCn2ccnc2)c1 [Compound 1, N-[3-[2-(1H-Imidazol-1-yl)ethoxy]phenyl]-4-(2-thienyl)-2-pyrimidinamine hydrochloride]
Lesion Area (Low IgE) ([1]; 0.125 mg/kg PO 2 hrs): 87 ± 16 mm^2 | Lesion Area (High IgE) ([1]; 0.125 mg/kg PO 2 hrs): 132 ± 20 mm^2 | Lesion Area (Low IgE) ([1]; 0.25 mg/kg PO 2 hrs): 92 ± 13 mm^2 | Lesion Area (High IgE) ([1]; 0.25 mg/kg PO 2 hrs): 127 ± 19 mm^2 | Lesion Area (High IgE) ([1]; 1.0 mg/kg PO 2 hrs, hydrochloride): 115 ± 14 mm^2 and 100 ± 20 mm^2 and 129 ± 26 mm^2 | Lesion Area (Low IgE) ([1]; 1.5 mg/kg PO 2 hrs): 56 ± 22 mm^2 | Lesion Area (High IgE) ([1]; 1.5 mg/kg PO 2 hrs): 128 ± 43 mm^2 | % CONTROL (lesion area) ([1]; 1.5 mg/kg PO @ 2 hrs): 41.8% | Lesion Area (Low IgE) [1, 3]: 71 ± 20 mm^2 and 76 ± 14 mm^2 | Lesion Area (High IgE) [1, 3]: 103 ± 5 mm^2 and 119 ± 19 mm^2 | % CONTROL (lesion area) ([1]; 2 mg/kg PO @ 2 hrs, hydrochloride): 56.8% and 43.3% | Lesion Area (Low IgE) ([1]; 2.5 mg/kg PO 2 hrs): 8 ± 15 mm^2 | Lesion Area (High IgE) ([1]; 2.5 mg/kg PO 2 hrs): 17 ± 30 mm^2 | % CONTROL (lesion area) ([1]; 2.5 mg/kg PO @ 2 hrs): 15.0% | IC50 [2]: 0.1 ± 0.01 µM
